This note sets out measurements from patent US8440199B2, “Methods for mobilizing mesenchymal stem cells in a patient” (Imperial Innovations Limited, priority 2007, dated 2013).

Experiment [1] has as its system neutrophils. Kind of experiment: Neutrophil mobilization, in situ perfusion of hind limb. Conditions: VEGF (50 nM) infused acutely with CXCR4 antagonist, FIG. 24b.
Procedure: 24 hours later these mice underwent perfusion of the right hind limb. CXCR4 antagonist (AMD3100 0.1 mM, closed bars) or vehicle (PBS, open bars) were then infused directly into the femoral artery for 10 minutes. The hind limb was then perfused for a further 50 minutes to allow collection of a, neutrophils via the femoral vein. […] The hind limb was again perfused for a further 50 minutes to allow b, collection of neutrophils. […] Data: mean±s.e.m. *: P<0.05, ***: P<0.001 between selected groups.
On day 5 following pre-treatment of growth factors, mice were anaesthetized and the femoral artery and vein exposed. The hind limb was isolated by occlusion of the external iliac artery, superficial epigastric and muscular branch. […] Perfusion buffer was infused via the arterial cannula and removed from the venous cannula using a Minipuls peristaltic pump (Anachem, Luton, UK). The hind limb was perfused for an initial 2 minutes to remove remaining blood from the vasculature and then perfused for a further 60 min with vehicle alone or the CXCR4 antagonist (AMD3100, 0.1 mM), infused over the first 10 minutes using an infusion/withdrawal pump (Harvard Instruments, U.K.).
The perfusate was centrifuged and re-suspended in DMEM+20% FBS.
For a further experiment, the system named is EPCs. Nature of the experiment: In vitro chemotaxis of bone marrow EPCs towards SDF-1α. Conditions: bone marrow cells of mice treated 4 days; 30 nM SDF-1α, FIG. 23e, 23g. It counts as cell-based. The procedure:
(§1) Bone marrow was aspirated on day 5 and harvested cells were used to determine a, SDF-1α levels in bone marrow supernatant as determined by ELISA; b, % of bone marrow Lin^− Sca-1^+ cells expressing CXCR4; and c, % of bone marrow CD34^+ VEGFR2^+ cells expressing CXCR4. Harvested cells were also utilized in the following chemotaxis assays: d, number of HPCs; and e, EPCs undergoing chemotaxis towards 30 nM SDF-1α. Cells taken from bone marrow of mice treated with G-CSF (closed bars) or vehicle (PBS, open bars). f, number of HPCs; and g, EPCs undergoing chemotaxis towards 30 nM SDF-1α.

The test system of experiment [2] is neutrophils. Kind of experiment: Leukocyte counts of bone marrow. Conditions: treated 4 days, compared to controls, FIG. 24f. It counts as in vivo, mice.
Procedure: 24 hours later these mice underwent perfusion of the right hind limb. CXCR4 antagonist (AMD3100 0.1 mM, closed bars) or vehicle (PBS, open bars) were then infused directly into the femoral artery for 10 minutes. The hind limb was then perfused for a further 50 minutes to allow collection of a, neutrophils via the femoral vein. […] The hind limb was again perfused for a further 50 minutes to allow b, collection of neutrophils.
The perfusate was centrifuged and re-suspended in DMEM+20% FBS. […] Bone marrow and perfusate cytospins, and blood smears were stained using DiffQuik for the enumeration of mononuclear cells, eosinophils, and neutrophils.
Experiment [3] concerns SPCs. Kind of experiment: CFU-SPC bone marrow frequency. It counts as in vivo, mice. Conditions: treated over 4 days, compared to controls, FIG. 22c.
Procedure: Female BALB/c mice were purchased from Harlan (Oxford, United Kingdom). […] 24 hours after the last injection, mice were administered a CXCR4 antagonist (AMD3100, 5 mg/kg i.p), KC (30 μg/kg i.v.) or vehicle and blood was collected via cardiac puncture 60 minutes later for enumeration of circulating leukocyte, HPC, EPC, and stromal progenitor cell levels.
(§3) The perfusate was centrifuged and re-suspended in DMEM+20% FBS. In some experiments citrated blood was obtained via cardiac bleed and lysed for red blood cells. Bone marrow and perfusate cytospins, and blood smears were stained using DiffQuik for the enumeration of mononuclear cells, eosinophils, and neutrophils. Bone marrow, perfusate and lysed blood were then used for assays outlined below to enumerate HPCs (CFU-HPC), EPCs (CFU-EPC), SPCs (CFU-F).
(§4) 5×10^5 cells were added to Mesencult media including supplements (Stemcell Technologies). Dishes were incubated for 7 days before media was changed, and then incubated for a further 14 days before the enumeration of SPC colonies (CFU-F).
In experiment [4] the test system is haematopoietic progenitor cells (HPC). Kind of experiment: Example 1: HPC mobilisation, hind limb bone marrow perfusion and circulating blood, CFU-HPC assay. To be noted: G-CSF or VEGF 2.5 μg on 4 consecutive days, then AMD3100 (0.1 mM infusion or 5 mg/kg i.p.); perfusate and blood, FIGS. 1-4. Type of experiment: in vivo, mice. The procedure: Assay was performed in duplicate Mobilised cells were maintained in semi-solid methylcellulose cultures for 11 days before quantification of the number of CFU-HPCs.

Another experiment concerns Lin^− Sca-1^+ HPCs. Nature of the experiment: PI staining, cell cycle status of Lin- Sca-1+ HPCs. Conditions: treated 4 days, FIG. 25c. It counts as in vivo, mice. The procedure: For flow cytometric analysis, cells were re-suspended in FACS buffer. To identify neutrophils in the bone marrow, surface expression of the granulocyte marker Ly-6G/Ly6C (Gr-1) was determined. Neutrophils were identified as Gr-1^high positive cells with a characteristic high side scatter profile. HPCs residing in the BM were selected as being negative for lineage (Lin^−) markers: CD3e, CD11b, CD45R, Ly-76, and Gr-1 and positive for Sca-1 (Lin^− Sca-1^+ cells) (Gerber et al., 2002; Uchida, et al., 1997). EPCs residing in the BM were selected as being positive for both CD34 and VEGFR2 (CD34^+ VEGFR2^+ cells) (Asahara et al., 1997; Yoon et al., 2005). […] Samples were then washed and then quantified on a FACSAria cell sorter (BD Biosciences, Oxford, United Kingdom) and analysed using FACSDiva software.
Lin^− Sca-1^+ cells and CD34^+ VEGFR2^+ cells were analysed to determine their cell cycling status using a propidium iodide (PI) stain. […] A dotplot of PI-Width against PI-Area was recorded. Aggregates of cells were detected as cells having a larger PI-W profile and were not included in the gate. […] To calculate the percentage of cells undergoing active cell cycling, a marker was set to exclude the G0/G1 peak and the percentage of cells in S/G2/M was calculated.

Experiment [5] has as its system mesenchymal stem cells (MSC). Nature of the experiment: Example 1: MSC mobilisation, hind limb bone marrow perfusion and circulating blood, CFU-MSC assay. It counts as in vivo, mice. To be noted: perfusate and blood, FIGS. 9-12. The procedure: 4×10^5 cells were added to 3 ml Mesencult media including supplements (05501 and 05502 Stemcell Technologies). Assay was performed in duplicate.

The test system of experiment [6] is HPCs. Nature of the experiment: In vitro chemotaxis of bone marrow HPCs towards SDF-1α. To be noted: bone marrow cells of mice treated 4 days; 30 nM SDF-1α, FIG. 23d, 23f. It counts as cell-based. On the procedure:
as §1

Experiment [7] relates to endothelial progenitor cells (EPC). Kind of experiment: Example 1: EPC mobilisation, hind limb bone marrow perfusion and circulating blood, CFU-EPC assay. To be noted: G-CSF or VEGF 2.5 μg on 4 consecutive days, then AMD3100; perfusate and blood, FIGS. 5-8.
Procedure: 24 hours after the last injection, mice were administered a CXCR4 antagonist (AMD3100, 5 mg/kg i.p), or vehicle and blood was collected via cardiac puncture 1 hour later for enumeration of circulating leukocyte, HPC, EPC and MSC levels.
On day 5, mice were anaesthetized with urethane (25% 0.2 ml i.p.) and the femoral artery and vein exposed. The hind limb was isolated by occlusion of the external iliac artery, superficial epigastric and muscular branch with 5/0 braided silk suture. Polyethylene cannulae (0.61 mm OD, Portex, London, UK) were immediately inserted into the femoral artery and vein and tied in place with 5/0 braided silk suture. Perfusion buffer (modified Krebs-Ringer bicarbonate buffer) at 37° C. was infused (0.15 ml/min) via the arterial cannula and removed from the venous cannula using a Minipuls peristaltic pump (Anachem, Luton, UK). The hind limb was perfused for an initial 10 minutes to remove remaining blood from the vasculature and then perfused for a further 60 min with vehicle alone or AMD3100, a CXCR4 antagonist (0.1 mM, Sigma UK) infused over the first 10 minutes using an infusion/withdrawal pump (Harvard Instruments, U.K.).
The perfusate was collected and centrifuged and the cell pellet re-suspended in Dulbecco's modified eagles medium (DMEM) with 20% fetal bovine serum (FBS). A total cell count was performed before the perfusate was lysed for red blood cells, re-suspended again in DMEM (20% FBS) and used for assays outlined below to enumerate haematopoietic progenitor cells (CFU-HPC), endothelial progenitor cells (CFU-EPC), and leukocyte populations.
In some experiments blood was taken to enumerate HPCs, EPCs and leukocytes. A total cell count was performed on citrated blood before being lysed for red blood cells and re-suspended in DMEM (20% FBS).
Assay was performed in duplicate. Dishes were incubated for 7 days before media was changed, and then incubated for a further 14 days before the enumeration of late outgrowth endothelial progenitor cells. Early outgrowth endothelial progenitor cells were enumerated on day 5.
In each of the above assays, the total number of colony forming units mobilised is calculated according to the number of colonies per plate×by the total number of leukocytes mobilized/number of cells seeded.
Mice were anaesthetised and the femoral artery and vein was cannulated such that the femoral bone marrow could be perfused (Martin et al, (2006) Br. J. Haem. 134: 326-329). […]
Mice were injected i.p. with the CXCR4 antagonist, AMD3100, (or vehicle control) and 1 h later the mice were killed. Blood was collected by cardiac puncture and stem cell numbers in the blood were determined. […]
The subject of experiment [8] is HPCs. Conditions: treated over 4 days, compared to controls, FIG. 22a. On the procedure: 24 hours after the last injection, bone marrow was aspirated for the enumeration of a, CFU-HPC bone marrow frequency; b, CFU-EPC bone marrow frequency; and c, CFU-SPC bone marrow frequency.
(§2) Mobilized cells were incubated for 11 days before quantification.

For another experiment, the system named is HPC colonies. To be noted: colonies grown from bone marrow of treated mice, FIGS. 25a, 25b. On the procedure: a, number of cells per colony; and b, mean colony area; of CFU-HPC grown for […] in methocult.
as §2

For a further experiment, the system named is CXCR2. Kind of experiment: Flow cytometry of CXCR2 expression on bone marrow neutrophils. To be noted: VEGF-treated mice, FIG. 24d. Type of experiment: in vivo. The procedure:
For flow cytometric analysis, cells were re-suspended in FACS buffer. To identify neutrophils in the bone marrow, surface expression of the granulocyte marker Ly-6G/Ly6C (Gr-1) was determined. Neutrophils were identified as Gr-1^high positive cells with a characteristic high side scatter profile. HPCs residing in the BM were selected as being negative for lineage (Lin^−) markers: CD3e, CD11b, CD45R, Ly-76, and Gr-1 and positive for Sca-1 (Lin^− Sca-1^+ cells) (Gerber et al., 2002; Uchida, et al., 1997). EPCs residing in the BM were selected as being positive for both CD34 and VEGFR2 (CD34^+ VEGFR2^+ cells) (Asahara et al., 1997; Yoon et al., 2005). Furthermore, neutrophils were stained for the surface expression of CXCR2, whilst Lin^− Sca-1^+ cells and CD34^+ VEGFR2^+ cells were stained for the cell surface expression of CXCR4. Samples were then washed and then quantified on a FACSAria cell sorter (BD Biosciences, Oxford, United Kingdom) and analysed using FACSDiva software.
Background: A flow cytometer gives signals particle by particle.

For experiment [9], the system named is HPCs. Kind of experiment: In situ perfusion of mouse hind limb, CFU-HPC in perfusate. To be noted: for HPC mobilization from the bone marrow: FIG. 21b.
Procedure: 24 hours after the last injection, mice underwent perfusion of the right hind limb. […] The hind limb was then perfused for a further 50 minutes to allow collection of b, CFU-HPC; c, CFU-EPC; or d, CFU-SPC; via the femoral vein. CFU-HPC, CFU-EPC, and CFU-SPC are shown as total number of colonies collected in the perfusate. n=5-8 mice per group. Data: means±s.e.m. *: P<0.05, **: P<0.01, ***: P<0.001 between selected groups.
Female BALB/c mice were purchased from Harlan (Oxford, United Kingdom).
(§5) On day 5 following pre-treatment of growth factors, mice were anaesthetized and the femoral artery and vein exposed. The hind limb was isolated by occlusion of the external iliac artery, superficial epigastric and muscular branch. Polyethylene cannulae (Portex, London, UK) were immediately inserted into the femoral artery and vein as previously described (Martin et al., 2003; 2006; Wengner et al., 2008). Perfusion buffer was infused via the arterial cannula and removed from the venous cannula using a Minipuls peristaltic pump (Anachem, Luton, UK). The hind limb was perfused for an initial 2 minutes to remove remaining blood from the vasculature and then perfused for a further 60 min with vehicle alone or the CXCR4 antagonist (AMD3100, 0.1 mM), infused over the first 10 minutes using an infusion/withdrawal pump (Harvard Instruments, U.K.).
The perfusate was centrifuged and re-suspended in DMEM+20% FBS. […] Bone marrow, perfusate and lysed blood were then used for assays outlined below to enumerate HPCs (CFU-HPC), EPCs (CFU-EPC), SPCs (CFU-F).
5×10^4 cells were added to Methocult medium (Stem cell technologies) supplemented with specific cytokines and growth factors to enable formation of CFU-HPC. Mobilized cells were incubated for 11 days before quantification. Further characteristics of CFU-HPC colonies were obtained on day 12, namely the mean number of cells in each colony, and the mean colony area. The mean colony area (mm^2) was determined by image analysis using Scion Image analysis program (NIH). The cell number was determined by diluting colonies grown in Methocult into DMEM (to disperse the methylcellulose) and aspirating the colonies into a single cell suspension before obtaining a cell count.
(§6) The total number of colony forming units mobilized was calculated according to the number of colonies per plate×by the total number of leukocytes mobilized/number of cells seeded.
Experiment [10] has as its system neutrophils. To be noted: VEGF-treated mice, KC 30 nM, FIG. 24e. The procedure: Bone marrow-derived neutrophils were tested for migration towards KC (30 nM) using 3 μm pore sized transwell chemotaxis plates as previously described (Wengner et al., 2008). To measure HPC and EPC migration towards SDF-1α, murine bone marrow cells (2×10^6 cells) were placed in the upper chamber of transwell inserts (5 μm pore size Corning). These in turn were placed in individual wells of a 24 well cell culture plate with 30 nM SDF-1α added. Chambers were incubated for 4 hours at 37° C. and migrated cells were then placed in methocult or EPC colony media as described above for the enumeration of CFU-HPC and CFU-EPC respectively.

For experiment [11], the system named is SPCs. Nature of the experiment: In situ perfusion of mouse hind limb, CFU-SPC in perfusate. Type of experiment: in vivo, mice. To be noted: for SPC mobilization from the bone marrow: FIG. 21d.
Procedure: a, overview of procedures set up for identifying the direct mobilization of progenitor cells from the femoral bone marrow. […] 24 hours after the last injection, mice underwent perfusion of the right hind limb. CXCR4 antagonist (AMD3100 0.1 mM, closed bars) or vehicle (PBS, open bars) were then infused directly into the femoral artery for 10 minutes. The hind limb was then perfused for a further 50 minutes to allow collection of b, CFU-HPC; c, CFU-EPC; or d, CFU-SPC; via the femoral vein. CFU-HPC, CFU-EPC, and CFU-SPC are shown as total number of colonies collected in the perfusate. n=5-8 mice per group. Data: means±s.e.m. *: P<0.05, **: P<0.01, ***: P<0.001 between selected groups.
24 hours after the last injection, mice were administered a CXCR4 antagonist (AMD3100, 5 mg/kg i.p), KC (30 μg/kg i.v.) or vehicle and blood was collected via cardiac puncture 60 minutes later for enumeration of circulating leukocyte, HPC, EPC, and stromal progenitor cell levels.
as §5, §3, §4, §6
[12] abbreviates: growth factor pre-treatment 4 days, then CXCR4 antagonist infused.

VEGF: the “suppression of neutrophil mobilization in response to the CXCR4 antagonist, acute administration” value with neutrophils [1] is reported as “effect was not seen”. The “EPC chemotaxis towards SDF-1α” value with EPCs is given as “had no effect on EPC migration”. For the same substance, the “numbers of neutrophils in the bone marrow” value in the experiment with neutrophils [2] is listed as “significant reduction in absolute numbers of mature neutrophils”. In addition, the “frequency/number of SPCs in the bone marrow” value in the experiment with SPCs [3] is given as “no difference was observed”. The HPC mobilization result in experiment [4] is “inhibits the capacity for AMD3100 to mobilize HPCs”. In addition, the “percentage of Lin- Sca-1+ HPCs in S/G2/M phase of the cell-cycle” value in the experiment with Lin^− Sca-1^+ HPCs was “significant increase in the percentage of BM-HPCs”. Besides, the MSC mobilization result in experiment [5] (G-CSF or VEGF 2.5 μg on 4 consecutive days, then AMD3100) is listed as “mobilizes MSC into the blood”; in [5] (agent alone) it was “does not mobilize MSCs”. Also, the “HPC chemotaxis towards SDF-1α” value in the experiment on HPCs [6] is “abolished the ability of HPCs to migrate to SDF-1α”. Also, the EPC mobilization result in [7] is “additive effect of AMD3100 and VEGF with respect to EPC mobilization”. The “frequency of HPCs in the bone marrow” value in the experiment with HPCs [8] is reported as “no difference was observed”. Also, the “cellular content and size of HPC colonies” value with HPC colonies was “significant increase in both their cellular content and size”. The “proportion of Gr-1+ bone marrow neutrophils expressing CXCR2” value with CXCR2 is on record as “did not affect either the proportion of Gr-1^+ bone marrow neutrophils expressing CXCR2”. The “reduction of HPC mobilization induced by infusion of the CXCR4 antagonist” value in the experiment with HPCs [9] (VEGF pre-treatment 4 days, then CXCR4 antagonist infused) turned out to be 75%. Besides, the “HPC mobilization from the bone marrow” value is “HPCs and SPCs were not mobilized” in the experiment on HPCs [9] (agent alone (CXCR4 antagonist 0.1 mM infused 10 min; G-CSF or VEGF pre-treatment 4 days), perfusate over 1 hour); “almost completely suppressed HPC mobilization” in the experiment with HPCs [9] (setting [12]). For the same substance, the “HPC mobilization, acute administration” value in the experiment with HPCs [9] (growth factor (50 nM) infused into femoral artery for 10 minutes, alone, FIG. 31a) is “mobilized both HPCs and EPCs”. The “ability of bone marrow neutrophils to migrate towards KC in vitro” value in the experiment on neutrophils [10] was “did not affect”. Further, the “SPC mobilization from the bone marrow” value in the experiment on SPCs [11] (agent alone (CXCR4 antagonist 0.1 mM infused 10 min; G-CSF or VEGF pre-treatment 4 days)) is “HPCs and SPCs were not mobilized”; with SPCs [11] (setting [12]), “SPCs were mobilized”. In addition, the “SPC mobilization, acute administration” value with SPCs [11] (growth factor (50 nM) infused acutely, alone or in combination with CXCR4 antagonist, FIG. 31c) is reported as “neither growth factor, when administered acutely or in combination with the CXCR4 antagonist led to mobilization of SPCs”.
